Laboratory results reported in the SangsterLogP compilation.

Compound	logP
NS(=O)(=O)c1cc2c(cc1Cl)N=CNS2(=O)=O	-0.24
O=c1[nH]c2nc(O)nc(O)c2[nH]1	-2.17
O=C(O)Cc1ccc(I)cc1	2.64
CCOC(=O)C(C#N)=NNc1cc(Cl)cc(Cl)c1	3.82
OC(c1ccccc1)C1CC1 (stereo unspecified)	1.95
CNC(=O)Oc1cccc(N(C)C)c1	1.43
CCCC(C)C1(CC)C(=O)NC(=O)NC1=O (stereo unspecified)	2.1
CC1(C)S[C@@H]2[C@H](NC(=O)[C@H](N)c3ccccc3)C(=O)N2[C@H]1C(=O)O	1.35
O=[N+]([O-])/C=C/c1ccoc1	1.41
C=CCNCCC	1.33
c1ccnnc1	-0.72
CC(=O)C(C#N)=NNc1cc(C(F)(F)F)ccc1Cl	5.08
Clc1ccccc1Cl	3.43
C1CCOC1	0.46
c1ccc(-c2ccncc2)cc1	2.59
O=C(O)COc1cccc(C(F)(F)F)c1	2.36
Cc1ccc(C)cc1	3.15
Brc1ccccc1Br	3.64
CC(=O)c1ccc(Cl)cc1	2.32
CCC(C)=O	0.29
ClCCl	1.25
CC(C)NCC(O)c1ccc(NS(C)(=O)=O)cc1 (stereo unspecified)	0.24
CN(C)C(=O)Nc1cccc(Cl)c1	2
Oc1cccc(O)c1	0.8
Cc1c(C)c(C)c(C)c(C)c1C	5.11
CCc1ccc(OC(=O)NC)cc1	2.23

Compound	logP
Oc1ccc2ccccc2c1	2.7
N[C@@H](Cc1ccccc1)C(=O)O	-1.38
O=[N+]([O-])c1cccc2c1c([N+](=O)[O-])cc[n+]2[O-]	0.95
COC(=O)C(C#N)=NNc1cc(C(F)(F)F)ccc1[N+](=O)[O-]	3.44
CCC#N	0.16
O=C(c1ccccc1)c1ccncc1	1.98
S=C=Nc1ccccc1	3.28
NS(=O)(=O)c1cccc([N+](=O)[O-])c1	0.55
Cc1cccc(S(N)(=O)=O)c1	0.85
Nc1ccc2cc3ccccc3nc2c1	2.77
C[C@H](CS)C(=O)N1CCC[C@H]1C(=O)O	0.34
CCCCNCCC	2.12
CNc1ccc([N+](=O)[O-])cc1	2.04
Cc1ccc(Cc2cnc(NCCSCc3ccc(C(C)(C)N)o3)[nH]c2=O)cn1	2.06
CCCCOc1cc(C(=O)NCCN(CC)CC)c2ccccc2n1	4.4
NCCc1cccnc1	-0.11
NC(=O)c1ccc(Cl)cc1	1.55
O=C(NC(CO)C(O)c1ccc([N+](=O)[O-])cc1)C(F)F (stereo unspecified)	0.42
Cc1cccc(C)n1	1.68
COc1cccc(N)c1	0.93
CCOC(=O)Nc1ccccc1	2.3
Cn1c([N+](=O)[O-])cnc1/C=C/c1ccnc(N)n1	0.85
Oc1ncnc2[nH]cnc12	-1.11
CC[C@@H]1C(=O)OC[C@@H]1Cc1cncn1C	0.12
NS(=O)(=O)c1cccc2cccnc12	0.42
CC/C(=C(/CC)c1ccc(O)cc1)c1ccc(O)cc1	5.07

Compound	logP
C=C	1.13
CCOC(=O)C(C#N)=NNc1cc(Cl)c(Cl)c(Cl)c1	5.03
COc1ccc(CN(CCN(C)C)c2ccccn2)cc1	3.27
NC(N)=S	-1.08
FC(F)(F)c1ccccc1	3.01
Cc1cnc(NC(=O)C2=C(O)c3ccccc3S(=O)(=O)N2C)s1	3.43
Nc1ncnc2c1ncn2[C@H]1C=C[C@@H](CO)O1	-0.5
O=C(O)Cc1ccc(O)cc1	0.75
Oc1c(Br)cc(Br)cc1Br	4.13
Cn1cnc([N+](=O)[O-])c1Sc1ncnc2nc[nH]c12	0.1
O=[N+]([O-])c1cc[n+]([O-])c2ccc(Cl)cc12	1.41
Oc1ccc(O)cc1	0.59
CCCCNCCCC	2.83
NCCc1c[nH]cn1	-0.7
O=c1ccn(C2C=CC(CO)O2)c(=O)[nH]1 (stereo unspecified)	-1.07
O=[N+]([O-])c1cc2ccccc2[n+]([O-])c1	0.56
c1ccc2nccnc2c1	1.32
NS(=O)(=O)c1ccc([N+](=O)[O-])cc1	0.64
OCc1ccncc1	0.06
Cc1cccc2c1c([N+](=O)[O-])cc[n+]2[O-]	1.36
CN1CC[C@]23c4c5ccc(O)c4O[C@H]2C(=O)CC[C@@]3(O)[C@H]1C5	0.83
c1ccc2[nH]cnc2c1	1.32
O=C(O)COc1ccc(Cl)cc1Cl	2.81
COc1ccc(CC(C)N)cc1OC (stereo unspecified)	1.2
O=c1[nH]cc(F)c(=O)[nH]1	-0.89
O=C1[C@H]2CC=CC[C@H]2C(=O)N1SC(Cl)(Cl)Cl	2.8

Compound	logP
CC(C)C(=O)C(C#N)=NNc1ccc(Cl)cc1C(F)(F)F	5.67
COC(=O)C(C#N)=NNc1cccc(C(F)(F)F)c1	3.78
O=C1C=CC(=O)C=C1	0.2
Nc1ncnc2c1ncn2[C@H]1C[C@H](F)[C@@H](CO)O1	0.08
CCCCCC=O	1.78
CC(=O)c1ccc(C)cc1	2.1
O=C(O)c1ccc(F)cc1	2.07
COc1ccccc1CO	1.13
CC(C)(C)COC(N)=O	0.94
CCC(=O)c1ccccc1	2.19
CCOC1(c2ccccc2)OCCN(C)C1C (stereo unspecified)	2.27
COc1ccc(C(=O)O)cc1	1.96
CSc1nncc(=O)n1N	0.38
c1ncc2[nH]cnc2n1	-0.37
Oc1ccccc1O	0.88
ClC(Cl)(Cl)Cl	2.83
O=S(=O)(c1ccccc1)c1ccccc1	2.4
c1ccc2nc3ccccc3cc2c1	3.4
Nc1nc2c(ncn2[C@H]2C[C@H](O)[C@@H](CO)O2)c(=O)[nH]1	-1.3
COc1ccc2c(c1)c(CC(=O)O)c(C)n2C(=O)c1ccc(Cl)cc1	4.27
O=C(O)c1cccc(F)c1	2.15
CC(C)[C@H](N)C(=O)O	-2.26
CC#N	-0.34
O=c1ccn([C@H]2CC[C@@H](CO)O2)c(=O)[nH]1	-1
N[C@@H](Cc1c[nH]c2ccccc12)C(=O)O	-1.06
CN(C)N=O	-0.57

Compound	logP
Nc1cc(N2CCCCC2)nc(N)[n+]1[O-]	1.24
Nc1ccc2cc3ccc(N)cc3nc2c1	1.83
O=C(O)COc1cccc(Br)c1	2.22
OC1OC[C@@H](O)[C@@H](O)[C@H]1O (stereo partly specified)	-2.32
C=CC	1.77
CCCc1ccc(S(N)(=O)=O)cc1	1.64
CNC(=O)Oc1cccc([N+](=O)[O-])c1	1.39
CN(C)S(=O)(=O)c1ccc(N)cc1	0.67
O=[N+]([O-])c1cccc(O)c1	2
Cc1cccc(O)c1	1.96
O=C(O)COc1ccc(Cl)cc1	2.25
O=C(O)c1ccc(N=C=S)cc1	3.52
Fc1ccccc1F	2.37
O=[N+]([O-])c1ccc(Br)cc1	2.55
Cc1ccc2cccc(O)c2n1	2.33
CC(=O)Oc1cccc(O)c1	1.23
Clc1cccc2cccnc12	2.44
CCOC(=O)c1ccccn1	0.87
CC(C)NCC(O)COc1cccc2[nH]ccc12 (stereo unspecified)	1.75
Cc1cccc(C)c1O	2.36
Clc1ccc(Cl)cc1	3.44
c1ccc(N2CCCCC2)cc1	2.98
